The target in this test is T1, BACE enzyme (Homo sapiens, UniProt P56817).
T1 construct: the catalytic domain, appended by a C-terminal poly-histidine tag, is secreted out into the cellular medium; made in house; host or cells: Drosophila melanogaster S2 cells
Kind of test: BACE enzyme inhibition, fluorescence-quenched peptide substrate MCA-EVNLDAEFK(DNP). The format is biochemical. The following applies: 50 mM acetate, pH 4.5, 0.25 mg/ml bovine serum albumin, 2.5% DMSO; read-out: Activity Rating (based on IC50 values). An excerpt: There are a number of methods by which inhibitors of the BACE enzyme can be identified experimentally. The enzyme can be obtained from membrane samples from natural tissues or cultured cells or can be expressed recombinantly in a host cell by well known methods of molecular biology. […] The enzymatic activity and/or ligand binding capability of the enzyme can be assessed within these membrane samples, or the enzyme can be purified to varying extents. As an illustrative example, the nucleic acid sequence encoding the pro and catalytic domains of human BACE can be appended on the 5′ end with an untranslated and signal sequence from the gene for acetylcholinesterase, and on the 3′ end with a sequence encoding a poly-histidine tag. This cDNA can then be expressed in Drosophila melanogaster S2 cells in which the signal and pro sequences of the transcribed/translated protein are removed by cellular proteases and the catalytic domain, appended by a C-terminal poly-histidine tag, is secreted out into the cellular medium. The enzyme can then be purified from the culture medium by nickel affinity chromatography by methods well known to those trained in the art [Mallender, W. et al., (2001) “Characterization of recombinant, soluble beta-secretase from an insect cell expression system.” Mol. Pharmacol. 59: 619-626]. Similar strategies for expressing and purifying various forms of BACE in bacterial, mammalian and other cell types would be known to one skilled in the art.
The enzyme thus obtained can be put in contact with a test compound and with an appropriate substrate on which enzyme-mediated peptide bond hydrolysis is known to occur. The ability of the test compound to diminish the rate of substrate hydrolysis can then be quantified as a measure of inhibition potency. Appropriate substrates can be prepared as peptides, proteins, or chemically modified versions of peptides or proteins, that contain an amino acid sequence that is recognized as a substrate by the enzyme. For example, the amino acid sequence immediately proximal to the beta-cleavage site within Swedish mutant APP is known to be recognized as a substrate for BACE. […] Longer peptide and protein substrates can also be designed by extending the amino acid composition on the N-terminal, the C-terminal, or both ends.
In one known application of (SEQ. ID. NO.:1), X is a 7-methoxycoumarin-4-acetyl (MCA) group and Y is a dinitrophenyl (DNP) group [Marcinkeviciene, J. et al., (2001) “Mechanism of inhibition of beta-site amyloid precursor protein-cleaving enzyme (BACE) by a statine-based peptide.” J. Biol. Chem. 276: 23790-23794]. When this peptide is intact, the natural fluorescence of the MCA group is quenched by its proximity to the DNP group. […] The increase in fluorescence intensity that accompanies enzyme-mediated peptide hydrolysis can be measured as a function of time to quantify the velocity of enzyme catalysis. In a typical assay system the BACE enzyme is diluted into a buffer system composed of 50 mM acetate, pH 4.5 containing 0.25 mg/ml bovine serum albumin. To this is added neat dimethyl sulfoxide (DMSO) or a stock solution of test compound dissolved in DMSO so that the final amount of DMSO in all assays is held constant at 2.5% (v:v). The enzymatic reaction is then initiated by addition of a stock solution of the substrate peptide to a known concentration. The fluorescence increase with time after substrate addition is monitored with an appropriate fluorescence detection instrument, such as a microplate reader or spectrofluorometer. The slope of the signal vs. time plot (progress curve) for samples to which only DMSO was added is taken as a measure of the uninhibited velocity and represents 100% enzymatic activity.

Experimental findings from US7557137B2, “Gamma-lactams as beta-secretase inhibitors” (Bristol-Myers Squibb Company, priority 2002, dated 2009) are described below.

T1 sequence (P56817 75-416 limits assumed): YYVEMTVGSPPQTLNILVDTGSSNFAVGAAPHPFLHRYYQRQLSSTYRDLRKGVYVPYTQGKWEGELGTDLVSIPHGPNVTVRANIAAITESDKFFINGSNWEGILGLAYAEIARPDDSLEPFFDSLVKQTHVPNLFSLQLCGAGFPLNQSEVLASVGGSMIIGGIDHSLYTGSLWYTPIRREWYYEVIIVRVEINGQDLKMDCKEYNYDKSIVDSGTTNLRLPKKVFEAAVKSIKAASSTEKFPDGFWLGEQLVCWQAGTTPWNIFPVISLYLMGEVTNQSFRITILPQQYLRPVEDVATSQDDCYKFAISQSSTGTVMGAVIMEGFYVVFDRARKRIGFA

By IC50 is commonly meant the concentration that gives 50% inhibition. For the compound `COc1cccc(CNC[C@@H](O)[C@H](Cc2cc(F)cc(F)c2)NC(=O)[C@H](CCc2cccc(F)c2)N2CCC(CC3CC3)(NC(C)=O)C2=O)c1` (stereo in doubt) [Example 40, (2S)-2-(3(S)-acetylamino-3-(cyclopropylmethyl)-2-oxo-pyrrolidin-1-yl)-N-[(1S,2R)-1-(3,5-difluorobenzyl)-2-hydroxy-3-(3-methoxybenzylamino)-propyl]-4-(3-fluorophenyl)-butyramide], the 50% inhibitory concentration (IC50) was less than 100 nM.
As for `CCCS(=O)(=O)N[C@]1(C(C)CC)CCN([C@@H](CCc2ccccc2)C(=O)N[C@@H](Cc2ccccc2)C(O)CNCc2cccc(OC)c2)C1=O` (stereo partly drawn) [Example 27, (2S)-2-(3(S)-(propylsulfonamido)-3-((S)-sec-butyl)-2-oxo-pyrrolidin-1-yl)-N-[(1S)-1-benzyl-2-hydroxy-3-(3-methoxy-benzylamino)-propyl]-4-phenyl-butyramide], the 50% inhibitory concentration (IC50) was in the range of 1000 to 50000 nM.
As for `CCCNC(=O)N[C@]1([C@@H](C)CC)CCN([C@@H](CCc2ccccc2)C(=O)N[C@@H](Cc2ccccc2)[C@H](O)CNCc2cccc(OC)c2)C1=O` [Example 17, (2S)-2-(3(S)-propylureido-3-((S)-sec-butyl)-2-oxo-pyrrolidin-1-yl)-N-[(1S,2R)-1-benzyl-2-hydroxy-3-(3-methoxy-benzylamino)-propyl]-4-phenyl-butyramide], the half-inhibitory concentration (IC50) fell in the range of 100 to 1000 nM.
The value for `C#CCNC[C@@H](O)[C@H](Cc1ccccc1)NC(=O)[C@H](CCc1ccccc1)N1CC[C@](NC(C)=O)([C@@H](C)CC)C1=O` [Example 30, (2S)-2-(3(S)-acetylamino-3-((S)-sec-butyl)-2-oxo-pyrrolidin-1-yl)-N-[(1S,2R)-1-benzyl-2-hydroxy-3-(propargylamino)-propyl]-4-phenyl-butyramide] was less than 100 nM; that for `CC[C@H](C)[C@@]1(NC(=O)CCCO)CCN([C@@H](CCc2ccccc2)C(=O)N[C@@H](Cc2ccccc2)[C@H](O)CNCc2cccc(OC)c2)C1=O` [Example 25, (2S)-2-(3(S)-(4-hydroxybutyrylamino)-3-((S)-sec-butyl)-2-oxo-pyrrolidin-1-yl)-N-[(1S,2R)-1-benzyl-2-hydroxy-3-(3-methoxy-benzylamino)-propyl]-4-phenyl-butyramide] was less than 100 nM.
The value for `CCNC(=O)N[C@]1([C@@H](C)CC)CCN([C@@H](CCc2ccccc2)C(=O)N[C@@H](Cc2ccccc2)[C@H](O)CNCc2cccc(OC)c2)C1=O` [Example 18, (2S)-2-(3(S)-ethylureido-3-((S)-sec-butyl)-2-oxo-pyrrolidin-1-yl)-N-[(1S,2R)-1-benzyl-2-hydroxy-3-(3-methoxy-benzylamino)-propyl]-4-phenyl-butyramide] was less than 100 nM; that for `COc1cccc(CNC[C@@H](O)[C@H](Cc2ccccc2)NC(=O)[C@H](CCc2ccccc2)N2CCC(CC(C)C)(NC(C)=O)C2=O)c1` (stereo in doubt) [Example 28, (2S)-2-(3(S)-acetylamino-3-(isobutyl)-2-oxo-pyrrolidin-1-yl)-N-[(1S,2R)-1-benzyl-2-hydroxy-3-(3-methoxy-benzylamino)-propyl]-4-phenyl-butyramide] was less than 100 nM.
The value for `CC[C@H](C)[C@@]1(NC(C)=O)CCN([C@@H](CCc2ccccc2)C(=O)N[C@@H](Cc2ccccc2F)[C@H](O)CNCc2cccc(Cl)c2)C1=O` [Example 12, (2S)-2-(3(S)-acetylamino-3-((S)-sec-butyl)-2-oxo-pyrrolidin-1-yl)-N-[(1S,2R)-1-(2-fluorobenzyl)-2-hydroxy-3-(3-chloro-benzylamino)-propyl]-4-phenyl-butyramide] was 100 to 1000 nM.
On to `CC(=O)N[C@]1(CC(C)C)CCN([C@@H](CCc2ccccc2)C(=O)N[C@@H](Cc2ccccc2)[C@H](O)CNCCC#N)C1=O` [Example 37, 2-(3(S)-Acetylamino-3(S)-isobutyl-2-oxo-pyrrolidin-1-yl)-N-[(1S,2R)-1-benzyl-3-(2-cyano-ethylamino)-2-hydroxy-propyl]-4-phenyl-butyramide], for which the IC50 was less than 100 nM.
Regarding `CCC(C)[C@@]1(NC(=O)CN)CCN([C@@H](CCc2ccccc2)C(=O)N[C@@H](Cc2ccccc2)[C@@H](O)CNCc2cccc(OC)c2)C1=O` (single isomer, unassigned) [Example 23], the IC50 was in the range of 1000 to 50000 nM.
The same measure for `CC[C@H](C)[C@@]1(NC(C)=O)CCN([C@@H](CCc2ccccc2)C(=O)N[C@@H](Cc2cc(F)cc(F)c2)[C@H](O)CNCc2cccc(OC)c2)C1=O` [Example 2, (2S)-2-(3(S)-Acetylamino-3-((S)-sec-butyl)-2-oxo-pyrrolidin-1-yl)-N-[(1S,2R)-1-(3,5-difluoro-benzyl)-2-hydroxy-3-(3-methoxy-benzylamino)-propyl]-4-phenyl-butyramide]: less than 100 nM; for `CC[C@H](C)[C@@]1(NC(=O)CCc2cnc[nH]2)CCN([C@@H](CCc2ccccc2)C(=O)N[C@@H](Cc2ccccc2)[C@H](O)CNCc2cccc(OC)c2)C1=O` [Example 20, (2S)-2-(3(S)-(3-3H-imidazol-4-yl-propionylamino)-3-((S)-sec-butyl)-2-oxo-pyrrolidin-1-yl)-N-[(1S,2R)-1-benzyl-2-hydroxy-3-(3-methoxy-benzylamino)-propyl]-4-phenyl-butyramide]: 100 to 1000 nM; for `CC[C@H](C)[C@@]1(NC(=O)CCO)CCN([C@@H](CCc2ccccc2)C(=O)N[C@@H](Cc2ccccc2)[C@H](O)CNCc2cccc(OC)c2)C1=O` [Example 24, (2S)-2-(3(S)-(3-hydroxypropionylamino)-3-((S)-sec-butyl)-2-oxo-pyrrolidin-1-yl)-N-[(1S,2R)-1-benzyl-2-hydroxy-3-(3-methoxy-benzylamino)-propyl]-4-phenyl-butyramide]: less than 100 nM.
The same measure for `COc1cccc(CNC[C@@H](O)[C@H](Cc2cc(F)cc(F)c2)NC(=O)[C@H](CCc2ccc3c(c2)OCO3)N2CC[C@@](CC3CC3)(NC(C)=O)C2=O)c1` [Example 39]: less than 100 nM; for `CCOC(=O)N[C@]1([C@@H](C)CC)CCN([C@@H](CCc2ccccc2)C(=O)N[C@@H](Cc2ccccc2)[C@@H](O)CNCc2cccc(OC)c2)C1=O` [Example 13, (2S)-2-(3(S)-ethoxycarbonylamino-3-((S)-sec-butyl)-2-oxo-pyrrolidin-1-yl)-N-[(1S,2S)-1-benzyl-2-hydroxy-3-(3-methoxy-benzylamino)-propyl]-4-phenyl-butyramide]: 1000 to 50000 nM; for `CC[C@H](C)[C@@]1(NC(C)=O)CCN([C@@H](CCc2ccccc2)C(=O)N[C@@H](Cc2ccccc2)[C@H](O)CNCC2CC2)C1=O` [Example 31, (2S)-2-(3(S)-acetylamino-3-((S)-sec-butyl)-2-oxo-pyrrolidin-1-yl)-N-[(1S,2R)-1-benzyl-2-hydroxy-3-(cyclopropylmethyl)amino-propyl]-4-phenyl-butyramide]: 100 to 1000 nM.
The same measure for `CC[C@H](C)[C@@]1(NC(C)=O)CCN([C@@H](CCc2ccccc2)C(=O)N[C@@H](Cc2ccccc2)[C@H](O)CNCc2cccc(Cl)c2)C1=O` [Example 29, (2S)-2-(3(S)-acetylamino-3-((S)-sec-butyl)-2-oxo-pyrrolidin-1-yl)-N-[(1S,2R)-1-benzyl-2-hydroxy-3-(3-chloro-benzylamino)-propyl]-4-phenyl-butyramide]: less than 100 nM.
